From article PMC4492750, “The discovery of a selective and potent A2a agonist with extended lung retention” (Pharmacology Research & Perspectives, 2015)
Values joined by “and” are separate entries in the source; they are usually repeats but may differ in a detail not shown here. Equal values may be shown once. Read-outs that look alike come from different tables or passages of the source.

Tests used:
[1] = target: T1, A3 (Homo sapiens, UniProt P0DMS8); assay: Selectivity panel of 98 targets in binding assays (Ricerca): A3; design: Ricerca (contract panel); conditions: 10 μmol/L of compound; data on AstraZeneca file
T1 sequence (P0DMS8 1-318): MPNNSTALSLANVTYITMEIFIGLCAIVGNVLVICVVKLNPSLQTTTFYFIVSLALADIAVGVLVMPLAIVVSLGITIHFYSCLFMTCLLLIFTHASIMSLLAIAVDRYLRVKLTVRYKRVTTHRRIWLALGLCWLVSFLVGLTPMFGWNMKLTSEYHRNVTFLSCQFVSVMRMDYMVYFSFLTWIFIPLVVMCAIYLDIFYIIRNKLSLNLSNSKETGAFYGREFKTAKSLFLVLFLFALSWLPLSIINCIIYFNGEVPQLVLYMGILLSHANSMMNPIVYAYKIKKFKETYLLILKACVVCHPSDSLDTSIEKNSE
Protocol: The medicinal chemistry synthetic optimization focused on the position C2 and N6 (Fig.2) with the aim to discover a compound with high A2a potency, high selectivity, low lipophilicity (logD), and high solubility. […] Selectivity of compound 2 was tested across 98 targets in binding assays (www.ricerca.com). The only identified significant hits (i.e., >50% effect at 10 μmol/L of compound 2) were A2a (∼100%) and A3 (∼84%) data on AstraZeneca file.

[2] = tested on: mean arterial blood pressure and heart rate; assay: Swivel study: four-step i.v. infusion in conscious rats, PK-PD of MAP and HR; format: in vivo, rat; design: Emax,MAP (maximum compound 2-induced decrease in MAP) / Emax,HR (maximum compound 2-induced increase in HR): unit not given here; conditions: for EC50: rat plasma concentration
Protocol: The relationship between plasma concentrations of compound 2 and mean arterial pressure (MAP) and HR, respectively, were modeled using data generated in the swivel study, including data from start of first infusion up to 2 h after end of last infusion (Dose 1–4, equivalent to 1.9, 11, 67 and 410 μg/kg per min for 15 min at each step). The baseline value, calculated as average of measurements during the 60 min baseline recording period was used as the predose value. Temporal differences between effect measurements and blood sampling for plasma analysis were accounted for by fitting a standard two-compartment PK model to the time-concentration profile for each individual animal, and subsequently using the individual parameter estimates to simulate compound 2 plasma concentrations at the times of effect measurements. Phoenix® WinNonlin® Version 6.2.1 (Certara, L.P., Princetown, NJ) was used for modelling.
A 4-step intravenous infusion protocol was performed during continuous recording of the arterial blood pressure signal and intermittent blood sampling in seven conscious rats the day after surgical implantation of an arterial line in the abdominal aorta via the caudal artery and a venous line in the jugular vein. After a baseline recording of 60 minutes, compound 2 was given in 15-minute constant infusion steps of 1.9, 11, 67 and 410μg/kg/min (0.034-0.2ml/kg/min) followed by a washout period of 120 minutes. One rat was monitored under the same conditions as a time-matched control. Blood samples for analysis of drug exposure were taken at the end of each dose step and intermittently during the washout.

[3] = tested on: LPS-induced TNFα production in human PBMC; assay: LPS-induced TNFα production in primary human PBMC (hTNFα PBMC); format: cell-based
Protocol: (§1) • Human A2a and A2b receptor pharmacology: Chinese hamster ovary CHO-K1 cells stably expressing human A2a and A2b receptors were used to determine substances agonistic potency and intrinsic activity. […] The signal corresponding to adenosine at 100 μmol/L was used to define 100% intrinsic activity. • Human A3 receptor pharmacology: A3 receptor Gi coupling was measured by GTPγ ^35[S] filter assay at serial dilutions of compound using membranes from Perkin-Elmer. The signal corresponding to the maximal response of NECA at 100 μmol/L was set to 100% intrinsic activity. • Lipopolysaccharide (LPS)-induced TNFα production in primary human peripheral blood mononuclear cells (hTNFα PBMC) and rat mononuclears (rTNFα splenocytes): Human PBMC and rat mononuclear spleen cells were incubated with serial dilutions of compound and stimulated with LPS.
Procedures and assays were run in R10 buffer (RPMI 1640 Medium supplemented with GlutaMAX™ and HEPES (GIBCO-BRL), 10% fetal calf serum, penicillin and streptomycin (each 5000IU/ml)). Human PBMC were purified from heparinised blood by Ficoll separation (Ficoll, Amersham Pharmacia Biotech AB, Cat: 17-1440-03, Lot: 312170) and rat mononuclear cells were collected after rat spleen perfusion. Both cell preparations were followed by hypotonic lysis of residual erythrocytes. Serial dilutions of compounds were pre-incubated with 200 000 cells/well (96-well plate) for 45min in 37 °C (190µl). Cells were stimulated by 10µl LPS (final concentration 0.5ng/ml human and 150ng/ml rat; SIGMA Cat: L-4516, Lot: 104K4036) for 18h at 37 °C. TNFα release was measured by ELISA (^TmR&D Systems plates) according to the manufacturer’s instructions in cell free supernatant.

[4] = target: T2, adenosine A1 receptor (Homo sapiens, UniProt P30542); assay: Human A1 receptor pharmacology: GTPγ35[S] assay on membranes; format: biochemical; conditions: average (SD)
T2 construct: purchased Perkin Elmer ES-010-M400UA
T2 sequence (P30542 1-326): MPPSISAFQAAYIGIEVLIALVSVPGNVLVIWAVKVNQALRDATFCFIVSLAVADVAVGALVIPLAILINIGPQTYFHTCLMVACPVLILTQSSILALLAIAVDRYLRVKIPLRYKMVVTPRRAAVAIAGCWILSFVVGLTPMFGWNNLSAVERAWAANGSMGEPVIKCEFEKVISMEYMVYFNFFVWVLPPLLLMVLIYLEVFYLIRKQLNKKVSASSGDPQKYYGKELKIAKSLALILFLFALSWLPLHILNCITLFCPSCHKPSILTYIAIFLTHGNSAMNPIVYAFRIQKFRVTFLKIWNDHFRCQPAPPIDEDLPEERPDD
Protocol: as §1
The A1 receptor Gi coupling was measured by a scintillation proximity (SPA) GTPγ ^35[S] assay. Membranes (12.5μg/ml final concentration) were incubated with substances in serial dilutions (50mM Hepes, pH 7.4, 1mM MgCl2, 100mM NaCl, 0.01% BSA, 50μg/ml saponin and 2.5μM GDP) including 1mg/ml Scintillation Beads (Wheat Germ Agglutinin PVT SPA, Perkin Elmer - Rpnq0001), 0.3nM of GTPγ ^35[S] (Perkin Elmer - NEG030H) and counts were read after 16h incubation at 4 °C. The signal corresponding to adenosine at 100μM was used to define 100% efficacy.

[5] = calculated from PK-PD relationships
[6] = conscious rats, 2 h after end of four-step i.v. infusion

Effect in binding assay, A3 [1]: ~84%
EC50 [4]: 2100 nM
SMILES: CCNC(=O)[C@H]1O[C@@H](n2cnc3c(NC(CC)CC)nc(NCCNC(=O)Nc4cc[n+](C)cc4)nc32)[C@H](O)[C@@H]1O [Compound 2, (2S,3S,4R,5R)-N-ethyl-5-[6-(1-ethylpropylamino)-2-[2-[(1-methylpyridin-1-ium-4-yl)carbamoylamino]ethylamino]purin-9-yl]-3,4-dihydroxy-tetrahydrofuran-2-carboxamide]
Concentration for 10% MAP decrease relative to plasma concentration at effective dose (fold lower) ([2]; 0.3 nmol/L vs 2-4 nmol/L at 10 μg/kg i.t.): 10 fold
kE0 (first-order rate constant, effect compartment) ([2]; PK-PD model of MAP, mean ± SD): 0.058 ± 0.039 min⁻¹
EC50 ([2]; Rattus norvegicus, iv, sigmoid Emax model, mean ± SD, read-out: EC50,MAP (plasma concentration that induces half the maximum MAP decrease)): 0.5 nM
EC50 ([2]; Rattus norvegicus, iv, simple Emax model on mean data, read-out: EC50,HR): 0.18 nM
Plasma concentration that produces 10% increase from baseline HR [2, 5]: 0.04 nM
Total plasma concentration that causes 10% decrease from baseline MAP [2, 5]: 0.3 ± 0.2 nmol/L and 0.3 nmol/L
Blood pressure 2 h postdosing [2, 6]: 100 ± 7 mmHg
Heart rate 2 h postdosing [2, 6]: 489 ± 41 bpm
Heart rate at dose 2 ([2]; conscious rats, i.v. infusion 11 μg/kg per min for 15 min, baseline 381 ± 21): 472 ± 33 bpm
Blood pressure at dose 3 ([2]; conscious rats, i.v. infusion 67 μg/kg per min for 15 min, baseline 114 ± 9): 98 ± 9 mmHg
Core body temperature ([2]; highest dose (410 μg/kg per min i.v.)): significant reduction
EC50 ([2]; sigmoid Emax model, mean ± SD, read-out: EC50,MAP (plasma concentration that induces half the maximum MAP decrease)): 0.52 ± 0.16 nM
Emax,MAP (maximum compound 2-induced decrease in MAP) ([2]; sigmoid Emax model, mean ± SD): 37 ± 11
Emax,HR (maximum compound 2-induced increase in HR) ([2]; simple Emax model on mean data): 158
EC50 ([3]; Homo sapiens, PBMC, read-out: EC50, inhibition of LPS stimulated TNFα release in human PBMC): 0.5 nM
IC50 ([3]; LPS-stimulated TNFα release, human PBMC, average (SD)): 0.5 nM
Emax ([3]; LPS-stimulated TNFα release, human PBMC, average (SD), read-out: Human TNFα PBMC Intrinsic activity): 72.4%
